Assay results: patent publication US20210195924A1, “PHOTODYNAMIC INACTIVATION METHOD OF SALMONELLA” (SHANGHAI OCEAN UNIVERSITY, priority 2019, published 2021)

Key:
[1] = tested on: Salmonella typhimurium CICC 21484 and Salmonella enteritidis CMCC 50041; test: Riboflavin-mediated photodynamic inactivation of Salmonella in bacterial solution (455-460 nm LED blue light, plate count); type: cell-based
[2] = tested on: Salmonella on contaminated egg shells; test: Salmonella inactivation experiment for fresh egg shells; type: cell-based
Protocol: Sterile egg shells were mixed with a Salmonella bacterial solution to be contaminated and divided into three groups as follows: 1, a single photosensitizer group with riboflavin concentration of 150 μmol/L, was subjected to the dark incubation for 40 min without the illumination of a blue light source; 2, a photodynamic experiment group with riboflavin concentration of 150 μmol/L, was subjected to the dark incubation for 40 min under the illumination of the blue light source for 40 min; and 3, a blank reference group with a saline solution having a volume equal to that of the riboflavin solution. Each group was provided with two parallel groups.
Bacteria culture: under a sterile condition, each group of egg shells was diluted with the saline solution for two times and then homogenized by a sterile homogenizing device and diluted. 100 μL diluent with appropriate dilution degrees was inoculated into the TSA solid culture medium and cultured for 24 to 48 h in the thermostatic incubator at 37° C. The number of bacterial colonies in each group was counted.

[3] = tested on: vesicular stomatitis virus; details: ultraviolet radiation; riboflavin 300 μmol/L; under 10 minutes; cited from earlier work
[4] = tested on: Staphylococcus aureus; details: Gram-positive bacteria Staphylococcus aureus; cited from earlier work
[5] = tested on: Escherichia coli; details: Gram-negative bacteria Escherichia coli; cited from earlier work

| Compound | amount of Salmonella reduced ([1]; riboflavin 100 μmol/L, incubation time 40 min, illumination time 30 min, initial inoculation about 4.5×10^6 CFU/mL) [Log CFU/mL] | lethality (fatality rate) of Salmonella ([1]; riboflavin 150 μmol/L, dark incubation 40 min, illumination 30 min) [%] | fatality rate of Salmonella ([1]; riboflavin 150 μmol/L, dark incubation 40 min, illumination time 40 min) [%] | lethality (fatality rate) of Salmonella ([1]; riboflavin 150 μmol/L, dark incubation 40 min, no blue light (illumination 0 min)) | amount of Salmonella reduced ([1]; riboflavin 150 μmol/L, incubation 40 min, illumination time 20 min, initial inoculation about 6.75 Log CFU/mL) [Log CFU/mL] | amount of Salmonella reduced ([1]; riboflavin 150 μmol/L, incubation 40 min, illumination time 30 min, initial inoculation about 6.75 Log CFU/mL (Embodiment 3)) [Log CFU/mL] | amount of Salmonella reduced ([1]; riboflavin 150 μmol/L, incubation 40 min, illumination time 40 min, initial inoculation about 6.75 Log CFU/mL) [Log CFU/mL] | amount of Salmonella reduced ([1]; riboflavin 150 μmol/L, incubation 40 min, illumination time 50 min, initial inoculation about 6.75 Log CFU/mL) [Log CFU/mL] | amount of Salmonella reduced ([1]; riboflavin 150 μmol/L, incubation time 40 min, illumination time 30 min, initial inoculation about 4.5×10^6 CFU/mL (Embodiment 1)) [Log CFU/mL] | lethality of Salmonella ([1]; riboflavin 200 μmol/L, dark incubation 40 min, illumination 30 min) [%] | amount of Salmonella reduced ([1]; riboflavin 200 μmol/L, incubation time 40 min, illumination time 30 min, initial inoculation about 4.5×10^6 CFU/mL) [Log CFU/mL] | lethality of Salmonella ([1]; riboflavin concentration increased beyond 200 μmol/L, dark incubation 40 min, illumination 30 min) | sterilization rate ([2]; egg shells, photodynamic inactivation with riboflavin as photosensitizer, multiple experiments) [%] | number of bacterial colonies in the egg shells after the PDI treatment ([2]; riboflavin 150 μmol/L, dark incubation 40 min, blue light 40 min, blank reference group 7.4×10^5 CFU/g) | number of bacterial colonies in the egg shells of the single photosensitizer group ([2]; riboflavin 150 μmol/L, dark incubation 40 min, no blue light, blank reference group 7.4×10^5 CFU/g) | virus killing [3] | photodynamic inactivation effect [4] | influence on growth [5] |
| --- | --- | --- | --- | --- | --- | --- | --- | --- | --- | --- | --- | --- | --- | --- | --- | --- | --- | --- |
| Cc1cc2nc3c(=O)[nH]c(=O)nc-3n(C[C@H](O)[C@H](O)[C@H](O)CO)c2cc1C [riboflavin] | 1.12 | 100 | 100 | extremely low | 2.23 | 6.21 | 6.75 | 6.75 | 6.14 | 100 | 6.21 | apparently decreased | 99.88 | 8.4×10^2 CFU/g | 7.0×10^5 CFU/g | killed |  |  |
| chlorophyllin ester |  |  |  |  |  |  |  |  |  |  |  |  |  |  |  |  | significant photodynamic inactivation effect | no influence on the growth |
